These molecules were tested against T1, Melatonin receptor type 1B (Homo sapiens, UniProt P49286).
T1 sequence (P49286 whole entry): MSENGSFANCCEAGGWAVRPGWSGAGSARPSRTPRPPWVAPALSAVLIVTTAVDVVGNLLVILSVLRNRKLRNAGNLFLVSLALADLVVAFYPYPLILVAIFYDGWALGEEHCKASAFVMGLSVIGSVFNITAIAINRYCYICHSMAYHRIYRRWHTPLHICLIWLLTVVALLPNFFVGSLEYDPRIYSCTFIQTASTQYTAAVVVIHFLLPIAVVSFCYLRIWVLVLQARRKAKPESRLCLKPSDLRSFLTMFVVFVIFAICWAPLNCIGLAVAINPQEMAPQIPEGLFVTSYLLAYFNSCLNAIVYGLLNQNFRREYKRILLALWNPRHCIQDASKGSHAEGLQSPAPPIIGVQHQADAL

Structure (SMILES) | Ki [nM]
O=C(NCCc1c(-c2ccccc2)[nH]c2ccccc12)C1CCC1 [N-CBCPT] | 85.1
CC(=O)NCCc1c[nH]c2ccccc12 [N-Acetyltryptamine] | 64.6

Further lines, results first:

Ki [nM] | Structure (SMILES)
339 | CC(=O)NCCc1c[nH]c2ccc(O)cc12 [N-Acetyltryptamine,5-Hydroxy]
0.03 | COc1ccc2[nH]c(-c3ccccc3)c(CCNC(C)=O)c2c1 [Melatonin,2-Phenyl]
11.2 | CC(=O)NCCc1c(Cc2ccccc2)[nH]c2ccccc12 [CAS_117946-91-5]

From BindingDB's records for doi:10.1038/sj.bjp.0702658 (Universit&Agrove, 1999)
